# Reference: ChEMBL document CHEMBL3098117, “Identification and optimization of an aminoalcohol-carbazole series with antimalarial properties” (ACS Med Chem Lett, 2013)
# Assays:
# Cytochrome P450 2C9 = Cytochrome P450 2C9 (Homo sapiens, UniProt P11712); assay: Inhibition of human recombinant CYP2C9 expressed in baculovirus-infected insect cells preincubated for 15 mins followed by substrate addition measured after 30 mins by luminescence assay; assay type: ADME; conditions: recombinant enzyme, 0.5 h
# Cytochrome P450 1A2 = molecular target: T1, Cytochrome P450 1A2 (Homo sapiens, UniProt P05177); assay: Inhibition of human recombinant CYP1A2 expressed in baculovirus-infected insect cells preincubated for 15 mins followed by substrate addition measured after 30 mins by luminescence assay; assay type: ADME; conditions: recombinant enzyme, 0.5 h
# T1 sequence (P05177 whole entry): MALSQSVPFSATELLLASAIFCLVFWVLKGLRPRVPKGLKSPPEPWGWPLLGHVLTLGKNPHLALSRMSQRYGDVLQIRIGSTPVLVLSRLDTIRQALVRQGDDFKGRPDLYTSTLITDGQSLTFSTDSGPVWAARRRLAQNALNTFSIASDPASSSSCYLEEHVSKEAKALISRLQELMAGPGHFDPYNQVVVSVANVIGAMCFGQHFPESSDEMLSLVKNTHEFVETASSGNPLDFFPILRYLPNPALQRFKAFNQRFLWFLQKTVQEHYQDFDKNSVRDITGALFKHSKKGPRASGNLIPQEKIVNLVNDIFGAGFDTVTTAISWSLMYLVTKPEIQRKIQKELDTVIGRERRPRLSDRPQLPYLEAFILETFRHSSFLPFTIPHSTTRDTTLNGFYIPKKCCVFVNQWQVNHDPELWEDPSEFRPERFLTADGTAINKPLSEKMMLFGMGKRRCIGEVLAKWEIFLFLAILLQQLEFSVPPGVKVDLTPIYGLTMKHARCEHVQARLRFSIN
# Chain of Cytochrome P450 2C9 (P11712 whole entry): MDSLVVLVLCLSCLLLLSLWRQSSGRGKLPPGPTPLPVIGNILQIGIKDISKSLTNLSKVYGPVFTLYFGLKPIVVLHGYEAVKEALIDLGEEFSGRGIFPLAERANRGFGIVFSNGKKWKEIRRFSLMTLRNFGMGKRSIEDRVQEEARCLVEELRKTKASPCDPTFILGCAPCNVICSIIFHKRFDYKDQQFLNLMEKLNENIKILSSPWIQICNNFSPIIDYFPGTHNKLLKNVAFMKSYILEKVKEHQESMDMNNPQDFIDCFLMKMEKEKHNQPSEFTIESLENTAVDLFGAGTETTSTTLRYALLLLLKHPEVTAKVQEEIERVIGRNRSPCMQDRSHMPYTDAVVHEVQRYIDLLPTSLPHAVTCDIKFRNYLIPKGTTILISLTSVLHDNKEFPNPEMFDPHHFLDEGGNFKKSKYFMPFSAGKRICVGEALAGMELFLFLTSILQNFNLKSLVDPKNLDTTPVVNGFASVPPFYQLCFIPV
compound,measurement,setting,value
OC(CNC1CCCCC1)Cn1c2ccc(Br)cc2c2cc(Br)ccc21 (racemic),inhibition (INH),Cytochrome P450 2C9,Active
same,inhibition (INH),Cytochrome P450 1A2,Active
